# Test results taken from ChEMBL document CHEMBL1139703, “Synthesis and structure-activity relationships of 3-phenyl-2-propenamides as inhibitors of glycogen phosphorylase a” (Bioorg Med Chem Lett, 2006).
# Tested on: not listed separately
# Test: Permeability in artificial phospholipid bilayer membrane at pH 7.05
# Type: ADME
# Details: not told, read-out: permeability
row,Papp [×10⁻⁶ cm/s],Compound
1,9,O=C(/C=C/c1ccc(Cl)c(Cl)c1)NCCCCCN1CCC(C(=O)Nc2ccc(Cl)c(Cl)c2)CC1

# Molecular target: T1, Glycogen phosphorylase, liver form (Homo sapiens, UniProt P06737)
# T1 sequence (P06737 whole entry): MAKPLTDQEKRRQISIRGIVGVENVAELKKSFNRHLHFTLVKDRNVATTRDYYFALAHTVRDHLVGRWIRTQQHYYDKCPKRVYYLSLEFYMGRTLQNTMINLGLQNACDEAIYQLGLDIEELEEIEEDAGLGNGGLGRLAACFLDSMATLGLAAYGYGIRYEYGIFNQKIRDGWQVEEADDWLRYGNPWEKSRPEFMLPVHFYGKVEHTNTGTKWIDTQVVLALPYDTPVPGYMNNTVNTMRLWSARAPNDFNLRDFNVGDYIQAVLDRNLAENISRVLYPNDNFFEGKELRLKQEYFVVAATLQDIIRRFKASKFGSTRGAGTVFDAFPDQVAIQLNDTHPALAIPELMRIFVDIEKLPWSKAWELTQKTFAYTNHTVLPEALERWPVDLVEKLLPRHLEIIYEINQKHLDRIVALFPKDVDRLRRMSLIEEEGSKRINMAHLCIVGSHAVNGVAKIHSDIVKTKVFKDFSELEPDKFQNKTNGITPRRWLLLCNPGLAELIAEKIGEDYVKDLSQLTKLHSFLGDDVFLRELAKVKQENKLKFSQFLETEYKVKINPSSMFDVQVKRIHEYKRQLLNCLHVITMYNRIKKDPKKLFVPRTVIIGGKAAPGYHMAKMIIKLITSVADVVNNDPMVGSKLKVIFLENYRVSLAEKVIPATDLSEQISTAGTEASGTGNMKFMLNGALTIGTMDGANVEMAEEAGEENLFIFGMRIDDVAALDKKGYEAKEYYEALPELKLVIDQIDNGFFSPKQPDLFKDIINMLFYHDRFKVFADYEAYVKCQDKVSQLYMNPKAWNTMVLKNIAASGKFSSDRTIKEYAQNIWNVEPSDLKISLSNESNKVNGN
# Test: Inhibition of human liver GPa in absence of glucose
# Details: not given
row,IC50 [µM],Compound
1,> 20,O=C(/C=C/c1ccc(Cl)c(Cl)c1)NCCCCCN1CCN(C(=O)Nc2ccc(Cl)c(Cl)c2)CC1

# Molecular target: T1, Glycogen phosphorylase, liver form
# Test: Inhibition of human liver GPa in presence of glucose
# Details: not given
row,Compound,IC50 [µM]
1,O=C(/C=C/c1ccc(Cl)c(Cl)c1)NCCCCCCN1CCN(C(=O)Nc2ccc(Cl)c(Cl)c2)CC1,0.44
2,COc1cccc(NC(=O)N2CCN(CCCCCNC(=O)/C=C/c3ccc(Cl)c(Cl)c3)CC2)c1,100
3,Cc1ccc(NC(=O)N2CCN(CCCCCNC(=O)/C=C/c3ccc(Cl)c(Cl)c3)CC2)cc1,100
4,O=C(/C=C/c1ccccc1)NCCCCN1CCCN(C(=O)Nc2ccc(Cl)c(Cl)c2)CC1,0.17
5,O=C(/C=C/c1ccc(Cl)c(Cl)c1)NCCCCN1CCN(C(=O)Nc2ccc(Cl)c(Cl)c2)CC1,0.71
6,O=C(/C=C/c1ccc(Cl)c(Cl)c1)NCCCCCN1CCN(C(=O)Nc2ccc(Cl)c(C(F)(F)F)c2)CC1,51
7,O=C(/C=C/c1ccc(Cl)c(Cl)c1)NCCN1CCCN(C(=O)Nc2ccc(Cl)c(Cl)c2)CC1,100
8,O=C(/C=C/c1ccc(Cl)c(Cl)c1)NCCCCCN1CCN(C(=O)Nc2cccc(Cl)c2)CC1,51
9,O=C(/C=C/c1ccc(Cl)c(Cl)c1)NCCCCCN1CCCN(C(=O)Nc2ccc(Cl)c(Cl)c2)CC1,0.47

# More lines, in order of falling IC50, values ahead:
row,IC50 [µM],Compound
1,100,O=C(/C=C/c1ccc(Cl)c(Cl)c1)NCCCCCN1CCN(C(=O)Nc2ccc(Cl)cc2)CC1
2,100,Cc1ccc(NC(=O)N2CCCN(CCCCCNC(=O)/C=C/c3ccc(Cl)c(Cl)c3)CC2)cc1
3,90,O=C(/C=C/c1ccc(Cl)c(Cl)c1)NCCN1CCN(C(=O)Nc2ccc(Cl)c(Cl)c2)CC1
4,70,O=C(/C=C/c1ccc(Cl)c(Cl)c1)NCCCCCN1CCN(C(=O)Nc2ccc3c(c2)OCO3)CC1
5,51,O=C(/C=C/c1ccc(Cl)c(Cl)c1)NCCCCCN1CCCN(C(=O)Nc2ccc(Cl)cc2)CC1
6,24,O=C(/C=C/c1ccc(Cl)c(Cl)c1)NCCCCCCN1CCCN(C(=O)Nc2ccc(Cl)c(Cl)c2)CC1
7,10,COc1cccc(NC(=O)N2CCCN(CCCCCNC(=O)/C=C/c3ccc(Cl)c(Cl)c3)CC2)c1
8,1.6,O=C(/C=C/c1ccc(Cl)c(Cl)c1)NCCCCCN1CCCN(C(=O)Nc2ccc(Cl)c(C(F)(F)F)c2)CC1
9,1.3,O=C(/C=C/c1ccc(Cl)c(Cl)c1)NCCCCCN1CCCN(C(=O)Nc2cccc(Cl)c2)CC1
10,0.98,O=C(/C=C/c1ccc(Cl)c(Cl)c1)NCCCCCN1CCN(C(=O)Nc2ccc(F)c(Cl)c2)CC1
11,0.94,O=C(/C=C/c1ccc(Cl)c(Cl)c1)NCCCCCN1CCN(C(=O)Nc2ccc(Cl)c(Cl)c2)CC1
12,0.72,O=C(/C=C/c1ccc(Cl)c(Cl)c1)NCCCCCN1CCCN(C(=O)Nc2ccc(F)c(Cl)c2)CC1
13,0.63,O=C(/C=C/c1ccc(Cl)c(Cl)c1)NCCCCCN1CCC(C(=O)Nc2ccc(Cl)c(Cl)c2)CC1
14,0.32,O=C(/C=C/c1ccc(Cl)c(Cl)c1)NCCCN1CCN(C(=O)Nc2ccc(Cl)c(Cl)c2)CC1
